Measured values: patent EP0888056B1, “HERBICIDAL MIXTURES” (BASF AKTIENGESELLSCHAFT, priority 1996, dated 1998)
Where “and” joins values, the source holds several entries; their conditions need not be identical. Equal values may be shown once.

What was measured:
Type in all cases: in vivo
Veronica persica = experiment: greenhouse herbicidal trial, post-emergence application, assessment 21 days after treatment
Method: (§1) The trials are carried out under greenhouse conditions in pre- and post-emergence applications. The plant seeds are sown in pots containing a loamy sand soil (0.5 I). The herbicides are applied as single treatments, or in a combination comprising a BAP compound and a non-BAP compound as designated, before or after emergence of weeds and crop. The herbicidal performance is assessed as percent damage in comparison to the untreated control plants. The assessment is done 21 days after the treatment. Wheat and barley are treated at the 3-4 leaf stage, the broad-leaf weeds at the 2-4 leaf stage and annual grasses at the 2-3 leaf stage.

Lamium purpureum = experiment: as above
Method: as §1

Papaver rhoeas = experiment: as above
Method: as §1

Stellaria media = experiment: as above
Method: as §1

Galium aparine = experiment: as above
Method: as §1

Polygonum convolvulus = experiment: as above
Method: as §1

Matricaria inodora = experiment: as above
Method: as §1

Viola arvensis = experiment: as above
Method: as §1

Myosotis arvensis = experiment: as above
Method: as §1

Polygonum lapathifolium = experiment: as above
Method: as §1

Lolium perenne = experiment: as above
Method: as §1

Alopecurus myosuroides [1] = experiment: as above
Method: as §1

Setaria viridis = experiment: as above
Method: as §1

Poa annua = experiment: as above
Method: as §1

Alopecurus myosuroides [2] = experiment: greenhouse herbicidal trial, pre-emergence application, assessment 21 days after treatment
Method: as §1

[3] = Galium aparine (1.whorl), 15 g a.i./ha
[4] = Galium aparine (2.whorl), 15 g a.i./ha
[5] = Galium aparine (1.whorl), 60 g a.i./ha
[6] = Galium aparine (1.whorl), 120 g a.i./ha
[7] = Galium aparine (2.whorl), 60 g a.i./ha
[8] = Galium aparine (2.whorl), 120 g a.i./ha
[9] = Galium aparine (1.whorl), 30 g a.i./ha

## COc1cc(OC)nc(NC(=O)NS(=O)(=O)N(C)S(C)(=O)=O)n1 [Amidosulfuron, reference compound]
Veronica persica; 30 g a.i./ha
  % Control: 0%
Lamium purpureum; 30 g a.i./ha
  % Control: 0%
Papaver rhoeas; 30 g a.i./ha
  % Control: 15%
Stellaria media; 30 g a.i./ha
  % Control: 50%
Galium aparine; [3]
  % Control: 40%
Galium aparine; [4]
  % Control: 20%

## CCCCCCCC(=O)Oc1c(Br)cc(C#N)cc1Br [Bromoxynil, Bromoxynil Octanoate, reference compound]
Lamium purpureum; 60 g a.i./ha
  % Control: 17%
Papaver rhoeas; 60 g a.i./ha
  % Control: 79%
Stellaria media; 60 g a.i./ha
  % Control: 0%
Galium aparine; [5]
  % Control: 70%
Galium aparine; [6]
  % Control: 75%
Galium aparine; [7]
  % Control: 57%
Galium aparine; [8]
  % Control: 77%

## Cc1cc(Cl)ccc1O[C@H](C)C(=O)O [CMPP-P, (R)-2-(4-chloro-2-methylphenoxy) proprionic acid]
Polygonum convolvulus; 480 g a.i./ha
  % Control: 40%
Lamium purpureum; 480 g a.i./ha
  % Control: 67%
Papaver rhoeas; 480 g a.i./ha
  % Control: 47%

## Cn1nc(C(F)(F)F)cc1Oc1cccc(Oc2cc(C(F)(F)F)nn2C)n1 [Compound A]
Matricaria inodora; 15 g a.i./ha
  % Control: 1%
Matricaria inodora; 30 g a.i./ha
  % Control: 1%
Veronica persica; 30 g a.i./ha
  % Control: 81%
Lamium purpureum; 30 g a.i./ha
  % Control: 65% and 62% and 35%
Papaver rhoeas; 15 g a.i./ha
  % Control: 79%
Papaver rhoeas; 60 g a.i./ha
  % Control: 10%
Stellaria media; 30 g a.i./ha
  % Control: 45% and 65%
Viola arvensis; 30 g a.i./ha
  % Control: 75%
Myosotis arvensis; 15 g a.i./ha
  % Control: 72%
Myosotis arvensis; 30 g a.i./ha
  % Control: 57%
Galium aparine; [9]
  % Control: 80% and 57%
Galium aparine; Galium aparine (1.whorl), 50 g a.i./ha
  % Control: 50%
Galium aparine; [5]
  % Control: 67%
Galium aparine; Galium aparine (2.whorl), 50 g a.i./ha
  % Control: 30%
Galium aparine; [7]
  % Control: 42%

## Cc1cc(Oc2cc(C(F)(F)F)nn2C)nc(Oc2cc(C(F)(F)F)nn2C)c1 [Compound B]
Matricaria inodora; 15 9 a.i./ha
  % Control: 7%
Matricaria inodora; 15 g a.i./ha
  % Control: 20%
Matricaria inodora; 30 g a.i./ha
  % Control: 22%
Polygonum convolvulus; 15 g a.i./ha
  % Control: 7%
Polygonum convolvulus; 30 g a.i./ha
  % Control: 15% and 7%
Veronica persica; 7.5 g a.i./ha
  % Control: 65%
Veronica persica; 15 g a.i./ha
  % Control: 77%
Lamium purpureum; 7.5 g a.i./ha
  % Control: 70%
Papaver rhoeas; 7.5 g a.i./ha
  % Control: 7%
Stellaria media; 7.5 g a.i./ha
  % Control: 25%
Stellaria media; 15 g a.i./ha
  % Control: 47% and 45% and 27%
Stellaria media; 30 g a.i./ha
  % Control: 62% and 42%
Polygonum lapathifolium; 15 g a.i./ha
  % Control: 17%
Galium aparine; Galium aparine (1.whorl), 15 9 a.i./ha
  % Control: 80%
Galium aparine; [3]
  % Control: 67% and 40%
Galium aparine; [9]
  % Control: 83% and 52%
Galium aparine; Galium aparine (2.whorl), 15 9 a.i./ha
  % Control: 60%
Galium aparine; [4]
  % Control: 45% and 37%
Galium aparine; Galium aparine (2.whorl), 30 g a.i./ha
  % Control: 67% and 65% and 45%
Galium aparine; Galium aparine (3.whorl), 15 g a.i./ha
  % Control: 40%
Galium aparine; Galium aparine (3.whorl), 30 g a.i./ha
  % Control: 40%

## Cc1cc(OCc2ccc(F)cc2)nc(Oc2cc(C(F)(F)F)nn2C)c1 [Compound C]
Lolium perenne; 12.5 g a.i./ha
  % control: 38%
Lolium perenne; 25 g a.i./ha
  % control: 65%
Lolium perenne; 50 g a.i./ha
  % control: 78%
Alopecurus myosuroides [1]; 12.5 g a.i./ha
  % control: 65%
Alopecurus myosuroides [1]; 25 g a.i./ha
  % control: 83%
Alopecurus myosuroides [1]; 50 g a.i./ha
  % control: 88%
Setaria viridis; 12.5 g a.i./ha
  % Control: 30%
  % control: 30%
Setaria viridis; 25 g a.i./ha
  % control: 55%
Setaria viridis; 50 g a.i./ha
  % control: 75%
Poa annua; 12.5 g a.i./ha
  % control: 75%

## Cc1cc(OCc2ccccc2)nc(Oc2cc(C(F)(F)F)nn2C)c1 [Compound D]
Alopecurus myosuroides [2]; 15 g a.i./ha
  % Control: 60% and 57%

## CCNc1nc(Cl)nc(NC(C)(C)C#N)n1 [Cyanazine, reference compound]
Matricaria inodora; 120 g a.i./ha
  % Control: 52%
Matricaria inodora; 240 g a.i./ha
  % Control: 85%
Polygonum convolvulus; 120 g a.i./ha
  % Control: 60%
Papaver rhoeas; 120 g a.i./ha
  % Control: 0%
Papaver rhoeas; 240 g a.i./ha
  % Control: 0%
Stellaria media; 120 g a.i./ha
  % Control: 61%
Stellaria media; 240 g a.i./ha
  % Control: 72%
Galium aparine; [6]
  % Control: 5%
Galium aparine; Galium aparine (1.whorl), 240 g a.i./ha
  % Control: 10%
Galium aparine; [8]
  % Control: 0%
Galium aparine; Galium aparine (2.whorl), 240 g a.i./ha
  % Control: 10%
Galium aparine; Galium aparine (3.whorl), 120 g a.i./ha
  % Control: 0%
Galium aparine; Galium aparine (3.whorl), 240 g a.i./ha
  % Control: 5%

## CC(Oc1ccc(Oc2nc3ccc(Cl)cc3o2)cc1)C(=O)O (centres unmarked) [Fenoxaprop, reference compound]
Setaria viridis; 15 g a.i./ha
  % Control: 62%
Setaria viridis; 30 g a.i./ha
  % Control: 72%
Setaria viridis; 60 g a.i./ha
  % Control: 77%

## Nc1c(Cl)c(F)nc(OCC(=O)O)c1Cl [Fluroxypyr, reference compound]
Matricaria inodora; 90 g a.i./ha
  % Control: 45%
Polygonum convolvulus; 90 g a.i./ha
  % Control: 45%
Veronica persica; 120 g a.i./ha
  % Control: 52%
Papaver rhoeas; 90 g a.i./ha
  % Control: 0%
Stellaria media; 120 g a.i./ha
  % Control: 67%
Polygonum lapathifolium; 120 g a.i./ha
  % Control: 80%

## CC(C)c1ccc(NC(=O)N(C)C)cc1 [Isoproturon, reference compound]
Polygonum convolvulus; 1920 g a.i./ha
  % Control: 4%
Veronica persica; 1920 g a.i./ha
  % Control: 0%
Lamium purpureum; 1920 g a.i./ha
  % Control: 3%
Lolium perenne; 150 g a.i./ha
  % control: 10%
Lolium perenne; 300 g a.i./ha
  % control: 40%
Alopecurus myosuroides [1]; 150 g a.i./ha
  % control: 30%
Alopecurus myosuroides [1]; 300 g a.i./ha
  % control: 73%
Viola arvensis; 1920 g a.i./ha
  % Control: 65%
Myosotis arvensis; 1920 g a.i./ha
  % Control: 25%
Setaria viridis; 150 g a.i./ha
  % control: 58%
Galium aparine; Galium aparine (2.whorl), 1920 g a.i./ha
  % Control: 0%
Poa annua; 150 g a.i./ha
  % control: 65%
Poa annua; 300 g a.i./ha
  % control: 83%
Alopecurus myosuroides [2]; 120 g a.i./ha
  % Control: 75%

## CCC(CC)Nc1c([N+](=O)[O-])cc(C)c(C)c1[N+](=O)[O-] [Pendimethalin]
Alopecurus myosuroides [2]; 450 g a.i./ha
  % Control: 35%
Alopecurus myosuroides [2]; 900 g a.i./ha
  % Control: 55%

## N#Cc1cc(I)c(O)c(I)c1 [loxynil, reference compound]
Matricaria inodora; 60 g a.i./ha
  % Control: 89%
Papaver rhoeas; 60 g a.i./ha
  % Control: 0%
Myosotis arvensis; 60 g a.i./ha
  % Control: 37%
Galium aparine; [5]
  % Control: 40%
Galium aparine; [7]
  % Control: 5%
